# Source: patent US9145411B2, “Substituted amino-pyrimidine derivatives” (Asana Biosciences, LLC, priority 2012, dated 2015)
# How the values were obtained:
# [1] = tested on: PC3 cells; assay: XTT assay for cell viability, PC3 cells; assay type: cell-based; details: Homo sapiens, PC-3; PC3 cell proliferation, 96 hours
# Description: Using a commercial kit from Sigma Aldrich (Catalog #X34251) and following its protocol, PC3 cells in the log phase of growth were employed and seeded at an optimal density of 1000 cell/well on to 96 well plates and incubated for 24 hours followed by the addition of compounds of formula (I) in serial dilutions. Compound dilutions were made in DMSO. The cells were incubated with the compounds of formula (I) for 96 hours and XTT tetrazolium dye (Sigma, USA) was subsequently added and incubated at 37° C. After the color formation, absorbance was measured at 465 nm in a Spectramax® Gemini spectrophotometer. EC50 values were calculated using a sigmoidal dose response curve fit in GraphPad Prism® v5 software. The tested compounds of formula (I) which caused inhibition of PC3 cell proliferation as determined by this assay protocol are shown in Table 2.
# [2] = biological target: T1, PI3Kα (wild-type) (Homo sapiens, UniProt P42336); assay: PI3 Kinase TR-FRET assay, PI3Kα (wild-type); assay type: biochemical; details: wild-type P110/P85α, 10 μM ATP
# T1 construct: made in house; host or cells: SF9 insect cells
# T1 sequence (P42336 whole entry, species assumed): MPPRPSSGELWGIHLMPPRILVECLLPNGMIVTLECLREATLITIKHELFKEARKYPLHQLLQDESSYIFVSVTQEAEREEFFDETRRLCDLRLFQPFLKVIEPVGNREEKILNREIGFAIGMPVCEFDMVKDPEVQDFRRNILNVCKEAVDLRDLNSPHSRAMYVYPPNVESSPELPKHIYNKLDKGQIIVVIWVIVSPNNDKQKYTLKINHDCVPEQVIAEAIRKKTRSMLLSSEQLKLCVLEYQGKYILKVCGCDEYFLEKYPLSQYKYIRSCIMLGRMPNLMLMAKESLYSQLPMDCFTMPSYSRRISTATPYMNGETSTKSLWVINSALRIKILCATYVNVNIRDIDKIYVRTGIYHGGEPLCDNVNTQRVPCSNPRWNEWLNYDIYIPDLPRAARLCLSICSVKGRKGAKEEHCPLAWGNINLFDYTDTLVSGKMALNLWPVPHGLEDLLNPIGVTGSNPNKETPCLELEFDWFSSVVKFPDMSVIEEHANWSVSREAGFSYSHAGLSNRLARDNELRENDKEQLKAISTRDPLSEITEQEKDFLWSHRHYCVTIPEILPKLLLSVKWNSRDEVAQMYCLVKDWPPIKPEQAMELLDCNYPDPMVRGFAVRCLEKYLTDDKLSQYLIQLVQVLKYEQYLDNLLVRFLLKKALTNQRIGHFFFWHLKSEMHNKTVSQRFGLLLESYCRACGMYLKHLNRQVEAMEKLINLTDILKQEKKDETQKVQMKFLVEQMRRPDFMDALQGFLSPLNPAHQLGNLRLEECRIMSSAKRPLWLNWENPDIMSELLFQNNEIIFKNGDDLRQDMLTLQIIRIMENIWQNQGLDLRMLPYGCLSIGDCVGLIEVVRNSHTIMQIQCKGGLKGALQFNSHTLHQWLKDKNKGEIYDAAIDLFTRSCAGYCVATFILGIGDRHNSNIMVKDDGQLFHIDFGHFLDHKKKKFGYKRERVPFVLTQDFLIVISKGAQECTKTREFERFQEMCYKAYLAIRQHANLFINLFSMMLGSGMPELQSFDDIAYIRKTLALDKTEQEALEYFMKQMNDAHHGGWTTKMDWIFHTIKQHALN
# T1 sequence (P27986 whole entry partner, species assumed): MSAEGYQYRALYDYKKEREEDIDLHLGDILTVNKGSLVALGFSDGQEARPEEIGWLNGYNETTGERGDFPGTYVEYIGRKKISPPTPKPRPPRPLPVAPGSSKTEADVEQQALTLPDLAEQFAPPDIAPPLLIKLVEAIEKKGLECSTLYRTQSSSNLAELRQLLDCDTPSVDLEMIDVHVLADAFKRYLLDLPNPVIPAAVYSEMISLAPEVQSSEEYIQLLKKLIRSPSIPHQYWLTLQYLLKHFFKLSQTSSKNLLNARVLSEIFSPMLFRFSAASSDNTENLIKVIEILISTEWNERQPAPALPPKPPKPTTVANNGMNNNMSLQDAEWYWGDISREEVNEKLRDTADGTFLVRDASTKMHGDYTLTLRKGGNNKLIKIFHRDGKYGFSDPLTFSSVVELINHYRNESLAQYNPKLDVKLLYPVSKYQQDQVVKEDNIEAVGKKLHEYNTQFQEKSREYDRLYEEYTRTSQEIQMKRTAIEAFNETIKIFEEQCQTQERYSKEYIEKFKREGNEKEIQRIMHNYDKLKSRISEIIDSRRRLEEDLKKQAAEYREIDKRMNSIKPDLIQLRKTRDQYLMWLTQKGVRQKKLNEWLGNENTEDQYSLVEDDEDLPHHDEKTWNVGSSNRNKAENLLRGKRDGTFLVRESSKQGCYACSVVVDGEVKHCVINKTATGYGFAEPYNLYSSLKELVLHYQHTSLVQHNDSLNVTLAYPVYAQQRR
# Description: The ability of compounds of the invention to inhibit PI3K activity was determined in a homogeneous TR-FRET assay using a PI3K assay kit (Millipore, USA; cat #33-016) according to manufacturer's instructions. PI3-Kinases (isoforms α, β, γ and δ) catalyze the phosphorylation of phosphatidylinositol, PIP2 to PIP3 in the presence of ATP and Mg^2+. The PIP3 product is detected by displacement of biotin-PIP3 from an energy transfer complex consisting of Europium labeled anti-GST monoclonal antibody, a GST-tagged PH domain, biotinylated PIP3 and Streptavidin-APC. Excitation of Europium in the complex results in an energy transfer to the APC and a fluorescence emission at 665 nm. The PIP3 product displaces biotin-PIP3 from the complex resulting in a loss of energy transfer and thus a decrease in signal.
# To test for the ability of compounds to inhibit the activity of PI3Kα (wild-type), exemplary compounds of formula (I) were dissolved in DMSO and directly distributed into 384-well plates at a volume of 0.5 μL. 14.5 μL of P110/P85α/PIP2 mixture in buffer (obtained from the Millipore kit) containing MgCl2 (40 mM) and DTT (5 mM) was added to compound wells and incubated for 60 minutes at room temperature. P110/P85α was expressed in SF9 insect cells and purified nickel column extraction. Five ng of wild-type P110/P85α was used in the assay. The kinase reaction was started by the addition of ATP. The assay concentrations of both PIP2 and ATP were 10 μM. The reaction mixture was incubated for 30 minutes at room temperature and was terminated by the addition of stop mix and detection mix. Fluorescence was measured at 615 and 665 nm upon excitation at 340 nm in a Victor™ V5 fluorometer (Perkin Elmer, USA). The fluorescence emission ratio at 665 to 615 nm, proportional to the kinase activity, was plotted against the compound concentration to generate dose-response curves and IC50 values were determined using GraphPad Prism® 5 software.
# [3] = biological target: T2, mTOR kinase (Homo sapiens, UniProt P42345); assay: mTOR kinase TR-FRET assay; assay type: biochemical; details: 20 μM ATP
# T2 construct: purchased Millipore, USA
# T2 sequence (P42345 1362-2549 limits assumed): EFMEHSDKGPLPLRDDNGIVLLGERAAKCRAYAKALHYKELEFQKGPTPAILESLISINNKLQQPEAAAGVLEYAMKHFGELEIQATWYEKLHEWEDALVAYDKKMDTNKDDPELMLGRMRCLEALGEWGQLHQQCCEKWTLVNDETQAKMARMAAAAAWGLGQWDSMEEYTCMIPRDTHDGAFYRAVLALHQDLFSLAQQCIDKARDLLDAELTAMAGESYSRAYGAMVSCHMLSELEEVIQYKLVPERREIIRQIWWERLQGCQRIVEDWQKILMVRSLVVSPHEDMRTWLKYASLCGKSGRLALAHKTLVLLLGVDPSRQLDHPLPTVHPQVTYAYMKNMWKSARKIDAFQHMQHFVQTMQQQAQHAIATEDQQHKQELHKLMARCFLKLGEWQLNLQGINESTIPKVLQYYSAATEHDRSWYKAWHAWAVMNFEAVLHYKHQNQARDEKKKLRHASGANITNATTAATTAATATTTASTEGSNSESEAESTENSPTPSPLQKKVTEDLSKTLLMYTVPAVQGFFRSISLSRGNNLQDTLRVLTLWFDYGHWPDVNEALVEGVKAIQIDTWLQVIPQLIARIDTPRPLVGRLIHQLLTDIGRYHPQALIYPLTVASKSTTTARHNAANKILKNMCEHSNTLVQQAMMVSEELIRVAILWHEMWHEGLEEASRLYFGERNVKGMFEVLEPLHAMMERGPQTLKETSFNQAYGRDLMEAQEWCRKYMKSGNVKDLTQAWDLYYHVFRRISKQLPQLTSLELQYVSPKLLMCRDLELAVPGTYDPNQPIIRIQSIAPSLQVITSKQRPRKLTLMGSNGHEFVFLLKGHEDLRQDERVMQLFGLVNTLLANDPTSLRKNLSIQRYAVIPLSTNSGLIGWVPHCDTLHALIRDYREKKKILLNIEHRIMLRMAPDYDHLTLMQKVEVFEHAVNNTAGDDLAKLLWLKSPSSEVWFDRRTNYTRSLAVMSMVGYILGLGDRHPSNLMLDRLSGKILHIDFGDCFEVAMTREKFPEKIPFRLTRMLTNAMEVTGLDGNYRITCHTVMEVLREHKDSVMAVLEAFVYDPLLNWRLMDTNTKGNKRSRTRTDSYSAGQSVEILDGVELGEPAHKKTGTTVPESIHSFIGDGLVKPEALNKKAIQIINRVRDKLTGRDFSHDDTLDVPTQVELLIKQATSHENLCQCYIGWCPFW
# Description: Compound inhibition for mTOR kinase was determined in a homogeneous TR-FRET assay using the Lance® ULight-p70 S6K (Thr 389) peptide (obtained from Perkin-Elmer). The ULight™-labeled synthetic peptide contains the amino acid residues surrounding Thr389 of human p70 S6K. The ULight-p70 S6K peptide is phosphorylated at Thr389 by mTOR. Phosphorylation motif: LGFTYVAP as substrate.
# The compound dilution was carried out in 100% DMSO followed by a buffer dilution. The reaction buffer was HEPES (50 mM pH 7.5), EGTA (1 mM), MnCl2 (3 mM). Test compounds at various concentrations were pre-incubated with mTOR (Millipore, USA; 5 ng) for 60 min, and then the Lance® ULight-p70 S6K (Thr 389) peptide (50 nM) was added along with ATP (20 μM). After incubating the reaction mixture for 60 minutes at room temperature, the kinase reaction was terminated by the addition of EDTA (10 mM) followed by the addition of detection mix, i.e., 1 nM Eu-labeled anti-phospho-substrate antibody (Perkin Elmer, USA). The fluorescence emission at […] was measured upon excitation at 340 nm. IC50 values were subsequently determined using a sigmoidal dose-response curve (variable slope) in GraphPad Prism® 5 software.
# Compounds of formula (I) caused inhibition of mTOR kinase activity as determined by this assay.
IC50 [1] [nM],IC50 [2] [nM],IC50 [3] [nM],SMILES
< 100,< 50,< 50,"Nc1ncc(-c2nc(N3CCOCC3)c3ncc(-c4ccc(C(=O)NC5CC5)cc4)cc3n2)cn1 [Example 4, 4-(2-(2-Aminopyrimidin-5-yl)-4-morpholinopyrido[3,2-d]pyrimidin-7-yl)-N-cyclopropylbenzamide]"
501 to 5000,< 50,< 50,"Nc1ncc(-c2nc(N3CCOCC3)c3ncc(-c4cccc(NC(=O)N5CCOCC5)c4)cc3n2)cn1 [Example 10, N-(3-(2-(2-aminopyrimidin-5-yl)-4-morpholinopyrido[3,2-d]pyrimidin-7-yl)-phenyl)morpholine-4-carboxamide]"
501 to 5000,201 to 10000,50 to 200,"CC(=O)Nc1cccc(-c2ccc3c(N4CCOCC4)nc(-c4cnc(N)nc4)nc3c2)c1 [Example 13, N-(3-(2-(2-amino-pyrimidin-5-yl)-4-morpholinoquinazolin-7-yl)phenyl)acetamide]"
501 to 5000,201 to 10000,201 to 10000,"Cn1cc(-c2ccc3c(N4CCOCC4)nc(-c4cnc(N)nc4)nc3c2)cn1 [Example 14, 5-(7-(1-methyl-1H-pyrazol-4-yl)-4-morpholinoquinazolin-2-yl)pyrimidin-2-amine]"
501 to 5000,201 to 10000,< 50,"CNC(=O)Nc1cccc(-c2ccc3c(N4CCOCC4)nc(-c4cnc(N)nc4)nc3c2)c1 [Example 15, 1-(3-(2-(2-amino-pyrimidin-5-yl)-4-morpholinoquinazolin-7-yl)phenyl)-3-methylurea]"
501 to 5000,50 to 200,< 50,"CS(=O)(=O)Nc1cccc(-c2ccc3c(N4CCOCC4)nc(-c4cnc(N)nc4)nc3c2)c1 [Example 16, N-(3-(2-(2-amino-pyrimidin-5-yl)-4-morpholinoquinazolin-7-yl)phenyl)methane-sulfonamide]"
100 to 500,< 50,< 50,"Nc1ncc(-c2nc(N3CCOCC3)c3ncc(-c4ccco4)cc3n2)cn1 [Example 25, 5-(7-(furan-2-yl)-4-morpholinopyrido[3,2-d]-pyrimidin-2-yl)pyrimidin-2-amine]"
501 to 5000,< 50,50 to 200,"Cc1ccc(-c2cnc3c(N4CCOCC4)nc(-c4cnc(N)nc4)nc3c2)o1 [Example 26, 5-(7-(5-methylfuran-2-yl)-4-morpholino-pyrido[3,2-d]pyrimidin-2-yl)pyrimidin-2-amine]"
501 to 5000,< 50,50 to 200,"CNC(=O)Nc1cccc(-c2cnc3c(N4CCOCC4)nc(-c4cnc(N)nc4)nc3c2)c1 [Example 28, 1-(3-(2-(2-amino-pyrimidin-5-yl)-4-morpholinopyrido[3,2-d]pyrimidin-7-yl)phenyl)-3-methylurea]"
100 to 500,< 50,< 50,"Nc1ncc(-c2nc(N3CCOCC3)c3ncc(-c4ccc(C(=O)Nc5cccnc5)o4)cc3n2)cn1 [Example 34, 5-(2-(2-aminopyrimidin-5-yl)-4-morpholino-pyrido[3,2-d]pyrimidin-7-yl)-N-(pyridin-3-yl)furan-2-carboxamide]"
501 to 5000,,,"Nc1ncc(-c2nc(N3CCOCC3)c3ncc(-c4ccc(C(=O)N5CCC(O)CC5)cc4)cc3n2)cn1 [Example 39, (4-(2-(2-aminopyrimidin-5-yl)-4-morpholino-pyrido[3,2-d]pyrimidin-7-yl)phenyl)(4-hydroxy-piperidin-1-yl)methanone]"
100 to 500,,,"Nc1ncc(-c2nc(N3CCOCC3)c3ncc(-c4cccc(C(=O)N5CCC(O)CC5)c4)cc3n2)cn1 [Example 40, (3-(2-(2-aminopyrimidin-5-yl)-4-morpholino-pyrido[3,2-d]pyrimidin-7-yl)phenyl)(4-hydroxy-piperidin-1-yl)methanone]"
> 1000,,,"Cc1cc(C(=O)Nc2ccc(-c3cnc4c(N5CCOCC5)nc(-c5cnc(N)nc5)nc4c3)cc2)[nH]n1 [Example 80, N-(4-(2-(2-amino-pyrimidin-5-yl)-4-morpholinopyrido[3,2-d]pyrimidin-7-yl)phenyl)-3-methyl-1H-pyrazole-5-carboxamide]"
,50 to 200,50 to 200,"Nc1ncc(-c2nc(N3CCOCC3)c3ccc(-c4cccc(NC(=O)N5CCOCC5)c4)cc3n2)cn1 [Example 88, N-(3-(2-(2-amino-pyrimidin-5-yl)-4-morpholinoquinazolin-7-yl)phenyl)morpholine-4-carboxamide]"
,201 to 10000,201 to 10000,"CC(O)C(=O)N1CCN(Cc2ccc3c(N4CCOCC4)nc(-c4cnc(N)nc4)nc3c2)CC1 (stereo not drawn) [Example 90, 1-(4-((2-(2-aminopyrimidin-5-yl)-4-morpholinoquinazolin-7-yl)methyl)piperazin-1-yl)-2-hydroxypropan-1-one]"
,201 to 10000,201 to 10000,"CC(C)(O)C(=O)N1CCN(Cc2ccc3c(N4CCOCC4)nc(-c4cnc(N)nc4)nc3c2)CC1 [Example 91, 1-(4-((2-(2-amino-pyrimidin-5-yl)-4-morpholinoquinazolin-7-yl)methyl)piperazin-1-yl)-2-hydroxy-2-methyl-propan-1-one]"
,201 to 10000,201 to 10000,"CC(=O)N1CCN(Cc2ccc3c(N4CCOCC4)nc(-c4cnc(N)nc4)nc3c2)CC1 [Example 92, 1-(4-((2-(2-amino-pyrimidin-5-yl)-4-morpholinoquinazolin-7-yl)methyl)piperazin-1-yl)ethanone]"
,201 to 10000,201 to 10000,"CC(=O)NC1CCN(Cc2ccc3c(N4CCOCC4)nc(-c4cnc(N)nc4)nc3c2)CC1 [Example 93, N-(1-((2-(2-amino-pyrimidin-5-yl)-4-morpholinoquinazolin-7-yl)methyl)piperidin-4-yl)-acetamide]"
,50 to 200,201 to 10000,"Nc1ncc(-c2nc(N3CCOCC3)c3ncc(CN4CCNCC4)cc3n2)cn1 [Example 94, 5-(4-morpholino-7-(piperazin-1-yl-methyl)pyrido[3,2-d]-pyrimidin-2-yl)pyrimidin-2-amine]"
,< 50,< 50,"CS(=O)(=O)Nc1cncc(-c2cnc3c(N4CCOCC4)nc(-c4cnc(N)nc4)nc3c2)c1 [Example 96, N-(5-(2-(2-amino-pyrimidin-5-yl)-4-morpholinopyrido[3,2-d]-pyrimidin-7-yl)pyridin-3-yl)methanesulfonamide]"
100 to 500,,50 to 200,"CN1CCN(C(=O)c2cccc(-c3cnc4c(N5CCOCC5)nc(-c5cnc(N)nc5)nc4c3)c2)CC1 [Example 110, (3-(2-(2-aminopyrimidin-5-yl)-4-morpholinopyrido[3,2-d]-pyrimidin-7-yl)phenyl)(4-methylpiperazin-1-yl)-methanone]"
,< 50,< 50,"CN(C)CC(=O)N1CCN(c2cccc(-c3cnc4c(N5CCOCC5)nc(-c5cnc(N)nc5)nc4c3)c2)CC1 [Example 112, 1-(4-(3-(2-(2-amino-pyrimidin-5-yl)-4-morpholinopyrido[3,2-d]pyrimidin-7-yl)-phenyl)piperazin-1-yl)-2-(dimethylamino)ethanone]"
